Experimental data reported in article PMC8890542, “Discovery of novel paeonol-based derivatives against skin inflammation in vitro and in vivo” (Journal of Enzyme Inhibition and Medicinal Chemistry, 2022).
Where two headings read alike, the source gives them in different places.

Tests used:
[1] = test system: LPS-induced nitric oxide production in RAW264.7 cells; assay: LPS-induced NO production, Griess Reagent assay; type: cell-based, mouse; conditions: for Inhibitory activity on LPS-induced NO secretion, in words: 10 µM; for IC50: LPS (0.5 μg/mL) 24 h; for Inhibition rate±SD (%) against NO production / inhibition at 10 µM: compounds 10 μM, 1 h, then LPS (0.5 μg/mL) 24 h; for inhibition at 10 µM: read-out: Inhibition rate±SD (%) against NO production
Description: RAW264.7 cells (7 × 10^4 cells/well) were seeded into 48-well plate and used for experiments after 24 h. […] After 24 h collect cell supernatant, NO production was measured using Griess Reagent assay (Beyotime). Griess reagent were mixed at a ratio of 1:1, and reacted at room temperature for 15 min. Measurement of absorbance at […] with enzyme reader. At least three independent experiments were performed for the determination of IC50 values, which were shown as mean ± SD. All experimental data were analysed by using GraphPad Prism software, version 8.0 (GraphPad Inc.).

RAW264.7 cells = assay: Cell viability assay (MTT), RAW264.7; type: cell-based, mouse; conditions: 24 h, read-out: Cytotoxicity IC50 with RAW264.7
Description: (§1) RAW264.7 cells (1 × 10^4 cells/well) were seeded into 96-well plate and used for experiments after 24 h. Compounds (4 µM, 20 µM and 100 µM) treated cell for 24 h. Forty microliters of MTT solution (5 mg/mL, Sigma-Aldrich) was then added and incubated for an additional 4 h. After 4 h, cell culture supernatants were removed and DMSO (150 µL) was added into per well for dissolving the resulting crystals. Shaking about 1 0 ∼ 15 min and the absorbance at 492 nm was measured by a microplate reader (MQX200, Bio-Tek, Winooski, VT). At least three independent experiments were performed for the determination of IC50 values, which were shown as mean ± SD. All experimental data were analysed by using GraphPad Prism software, version 8.0 (GraphPad Inc.).

LO2 cells = assay: Cell viability assay (MTT), LO2; type: cell-based; conditions: 24 h, read-out: Cytotoxicity IC50 with LO2
[2] = cited from earlier work
[3] = Cell viability assay (MTT), RAW264.7; type: cell-based, mouse; conditions: mouse, RAW264.7 cells, read-out: Cytotoxicity IC50 with RAW264.7
Description: as §1

[4] = Cell viability assay (MTT), LO2; type: cell-based; conditions: human, LO2 cells, read-out: Cytotoxicity IC50 with LO2
[5] = Human liver microsomes stability assay in vitro; type: in vitro ADME
Description: The livers were homogenised initially in a Tris (0.1 M)/KCl (0.1 M)/EDTA (1 mM)/butylated sodium hydroxytoluene (BHT) (0.02 mM) buffer. Add 1.5 µL control/test compound B12 working solution to 238.5 µL liver microsome working solution, gently mix. Pre-incubate at 37 °C for 5 min. Start the reaction by adding 60 µL NADPH working solution. Mix by pipetting up and down. At each time point: 0, 5, 15, 30 and 60 min, remove 30 µL of reaction mixture to 300 µL of quenching solution. Vortex vigorously for ∼1 min and centrifuge at 4000 rpm at 4 °C for 15 min. Remove 100 µL of the supernatant and mixed with 100 µL distilled water for LC-MS/MS analysis.

LPS-induced HaCaT cells = assay: Hyperproliferation assay, LPS-stimulated HaCaT cells (MTT); type: cell-based, human; conditions: pre-treated 6 h, LPS 24 h
Description: HaCaT cells were seeded in 96-well plates and cultured at 37 °C in a humidified 5% CO2 atmosphere. When the cell confluency reached 60–70%, HaCaT cells were then starved in serum-free DMEM for 12 h before stimulated by 100 ng/mL LPS for 24 h to mimic hyperproliferative psoriatic keratinocytes. The cell viability was measured by MTT method. Results are expressed as the percentage survival of cells in the cell treated group and the untreated control group (without the tested compound and LPS).

TOPK [6] = target: T1, TOPK (Homo sapiens, UniProt Q96KB5); design: method as in PMID 17276892; conditions: 100 µM; cited from earlier work
T1 construct: endogenous in cells
T1 sequence (Q96KB5 1-322): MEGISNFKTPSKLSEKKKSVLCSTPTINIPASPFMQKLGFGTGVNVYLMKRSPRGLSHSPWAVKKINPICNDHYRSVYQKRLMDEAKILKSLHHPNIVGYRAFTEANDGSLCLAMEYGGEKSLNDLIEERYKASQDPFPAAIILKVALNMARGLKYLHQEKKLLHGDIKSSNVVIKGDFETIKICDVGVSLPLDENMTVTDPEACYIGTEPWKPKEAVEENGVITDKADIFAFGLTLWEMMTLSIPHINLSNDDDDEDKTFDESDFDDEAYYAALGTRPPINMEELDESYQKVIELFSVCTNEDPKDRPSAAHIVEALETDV

TOPK [7] = target: T1, TOPK; design: method as in PMID 28404919; conditions: time- and dose-dependent, in vitro and in vivo; cited from earlier work
TOPK [8] = target: T1, TOPK; design: method as in earlier work; conditions: ref 16/17; cited from earlier work
[9] = test system: IMQ-induced psoriasis mouse model; assay: IMQ-induced psoriasis-like skin inflammation mouse model; type: in vivo, BALB/c mice; conditions: intragastric once a day, 7 days
Description: During treatment for 7 days, to score the severity of inflammation of mouse skin, an objective scoring system was developed based on the clinical psoriasis area and severity index. Erythema, scaling, and thickening were scored independently from 0 to 4 as follows: 0, none; 1, slight; 2, moderate; 3, marked; 4, very marked and weight loss. The cumulative score (erythema plus scaling plus thickening) served to indicate the severity of inflammation (scale 0 ∼ 12). On the 8th day, the mice were taken eyeball blood and back skin. One-half of the samples were immediately fixed in 4% paraformaldehyde and for haematoxylin and eosin (H&E) staining. The other samples were put in a −80 °C freezer. Before used, they were placed at room temperature for 30 min. After that, they were added 1 × PBS proportionally, homogenised and centrifuged. The supernatant was collected and used for ELISA assay and Western blot assay. […] The histological image was obtained using 3[sequence]’s Slide Converter (3[sequence], Hungary).

## 1–(5-acetyl-2-methoxyphenyl)-3–(2-fluorophenyl) urea [Compound B7]
[1]
  Inhibitory activity on LPS-induced NO secretion, in words: weak to moderate inhibitory activity
  IC50: > 10 µM
  Inhibition rate±SD (%) against NO production: 15.69±4.15%
RAW264.7 cells
  IC50: > 100 µM
LO2 cells
  IC50: > 100 µM

## 1–(5-acetyl-2-methoxyphenyl)-3–(4-fluorobenzyl) urea [Compound C4]
[1]
  IC50: > 10 µM
  Inhibition rate±SD (%) against NO production: 45.23±3.25%
RAW264.7 cells
  IC50: > 100 µM
LO2 cells
  IC50: > 100 µM

## 1–(5-acetyl-2-methoxyphenyl)-3–(4-fluorophenyl) urea [Compound B6]
[1]
  Inhibitory activity on LPS-induced NO secretion, in words: moderate inhibitory activity
  IC50: > 10 µM
  Inhibition rate±SD (%) against NO production: 24.15±6.18%
RAW264.7 cells
  IC50: > 100 µM
LO2 cells
  IC50: > 100 µM

## 1–(5-acetyl-2-methoxyphenyl)-3–(4-methoxyphenyl) urea [Compound B10]
[1]
  Inhibitory activity on LPS-induced NO secretion, in words: moderate inhibitory activity
  IC50: > 10 µM
  Inhibition rate±SD (%) against NO production: 5.03± 6.25%
RAW264.7 cells
  IC50: > 100 µM
LO2 cells
  IC50: > 100 µM

## 1–(5-acetyl-2-methoxyphenyl)-3–(4-methylbenzyl) urea [Compound C3]
[1]
  IC50: > 10 µM
  Inhibition rate±SD (%) against NO production: 30.23±4.56%
RAW264.7 cells
  IC50: > 100 µM
LO2 cells
  IC50: > 100 µM

## COc1cc(O)c(C(C)=O)cc1[N+](=O)[O-] [Compound 1]
[2]; reported by Huang
  Anti-inflammatory activity: strong anti-inflammatory activity

## COc1cc(O)c(C(C)=O)cc1N [Compound 2]
[2]; reported by Huang
  Anti-inflammatory activity: strong anti-inflammatory activity

## COc1ccc(C(C)=O)c(Oc2ccc(NC(=O)/C=C/c3cc(OC)c(OC)c(OC)c3)cc2)c1 [Compound 3]
[2]
  Anti-inflammatory activity: suitable anti-inflammatory activity

## COc1cc(O)c(C(C)=O)cc1NC(=O)NCc1ccccc1 [Compound C2, 1–(5-acetyl-4-hydroxy-2-methoxyphenyl)-3-benzylurea]
[1]; Mus musculus
  IC50: > 10 µM
  inhibition at 10 µM: 7.86 ± 2.19%
[3]
  IC50 at 24 h: > 100 µM
[4]
  IC50 at 24 h: > 100 µM
other
  melting point: 194 to 195 °C

## COc1ccc(CNC(=O)Nc2cc(C(C)=O)c(O)cc2OC)cc1 [Compound C5, 1–(5-acetyl-4-hydroxy-2-methoxyphenyl)-3–(4-methoxybenzyl) urea]
[1]; Mus musculus
  IC50: > 10 µM
  inhibition at 10 µM: 6.25 ± 5.16%
[3]
  IC50 at 24 h: > 100 µM
[4]
  IC50 at 24 h: > 100 µM
other
  melting point: 233 to 234 °C

## COc1cc(O)c(C(C)=O)cc1NC(=O)NCc1ccco1 [Compound C7, 1–(5-acetyl-4-hydroxy-2-methoxyphenyl)-3-(furan-2-ylmethyl) urea]
[1]; Mus musculus
  IC50: > 10 µM
  inhibition at 10 µM: 26.2 ± 5.13%
[3]
  IC50 at 24 h: > 100 µM
[4]
  IC50 at 24 h: > 100 µM
other
  melting point: 231 to 232 °C

## COc1cc(O)c(C(C)=O)cc1NC(=O)NCCc1ccc(F)cc1 [Compound D2, 1–(5-acetyl-4-hydroxy-2-methoxyphenyl)-3–(4-fluorophenethyl) urea]
[1]; Mus musculus
  IC50: > 10 µM
  inhibition at 10 µM: 30.2 ± 3.98%
[3]
  IC50 at 24 h: > 100 µM
[4]
  IC50 at 24 h: > 100 µM
other
  melting point: 224 to 225 °C

## COc1ccc(CCNC(=O)Nc2cc(C(C)=O)c(O)cc2OC)cc1 [Compound D3, 1–(5-acetyl-4-hydroxy-2-methoxyphenyl)-3–(4-methoxyphenethyl) urea]
[1]; Mus musculus
  IC50: > 10 µM
  inhibition at 10 µM: 33.3 ± 3.18%
[3]
  IC50 at 24 h: > 100 µM
[4]
  IC50 at 24 h: > 100 µM
other
  melting point: 180 to 181 °C

## COc1ccc2c(c1)[C@]13CCCC[C@@H]1[C@H](C2)N(C)CC3 [Dextromethorphan, reference compound]
[5]; human
  CLhep: 13.7 mL/min/kg
[5]; human liver microsomes
  T1/2: 39.5 min
  microsomal CLint: 35.1 µL/min/mg

## COc1ccc(C(C)=O)c(O)c1 [Pae, paeonol]
[1]
  Inhibitory activity on LPS-induced NO secretion, in words: weak potencies
[1]; Mus musculus
  IC50: > 10 µM
  inhibition at 10 µM: 18.4 ± 1.84%
[3]
  IC50 at 24 h: > 100 µM
LPS-induced HaCaT cells
  Excessive proliferation of LPS-induced HaCaT cells: did not have this effect
TOPK [6]
  Expression of TOPK: inhibit the expression of TOPK
TOPK [7]
  Phosphorylation levels of p38, JNKs, MSK1 and histone H2AX: suppressed
[4]
  IC50 at 24 h: > 100 µM
TOPK [8]
  Affinity for TOPK (MST): confirmed the affinity of paeonol for TOPK

## C[C@@H]1C[C@H]2[C@@H]3CCC4=CC(=O)C=C[C@]4(C)[C@@]3(F)[C@@H](O)C[C@]2(C)[C@@]1(O)C(=O)CO [dexamethasone, reference compound]
[9]; 20 mg/kg
  Pathological reduction, H&E of skin tissue: high pathological reduction
[9]; B12 20 and 40 mg/kg, Dex 20 mg/kg
  Experimental symptoms and PASI score: significantly attenuated experimental symptoms and PASI score
